Experimental data from ChEMBL document CHEMBL1201862, “PubChem BioAssay data set” (2004).
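Compound exposure: 48 hours, 5 concentrations, 96-well plates. Abbreviation: GI50, concentration required for 50% inhibition of growth.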 Activity calls are given as the source filed them. Cut-off read from the data, not from the text of the source: active = GI50 up to about 1.1 µM and inactive = higher.

Columns and labels:
Assay in all cases: growth of human tumour cells (NCI), 48 h
MDA-N = tested on: MDA-N
UACC-257 = tested on: UACC-257
UACC-62 = tested on: UACC-62
A498 = tested on: A498
MCF7 = tested on: MCF7
RPMI-8226 = tested on: RPMI-8226
CAKI-1 = tested on: CAKI-1
MDA-MB-231 = tested on: MDA-MB-231
OVCAR-4 = tested on: OVCAR-4
HL-60 = tested on: HL-60
SNB-19 = tested on: SNB-19
MOLT-4 = tested on: MOLT-4
SF-295 = tested on: SF-295
U-251 = tested on: U-251
SF-539 = tested on: SF-539
NCI-H460 = tested on: NCI-H460
HOP-62 = tested on: HOP-62
RXF 393 = tested on: RXF 393
SK-OV-3 = tested on: SK-OV-3

Row | Compound | GI50 (MDA-N) | GI50 (UACC-257) | GI50 (UACC-62) | GI50 (A498) | GI50 (MCF7) | GI50 (RPMI-8226) | GI50 (CAKI-1) | GI50 (MDA-MB-231) | GI50 (OVCAR-4) | GI50 (HL-60) | GI50 (SNB-19) | GI50 (MOLT-4) | GI50 (SF-295) | GI50 (U-251) | GI50 (SF-539) | GI50 (NCI-H460) | GI50 (HOP-62) | GI50 (RXF 393) | GI50 (SK-OV-3)
1 | CC(=O)n1cc(OP(=O)(Oc2ccccc2)Oc2ccccc2)c2ccccc21 | 27.6 µM (inactive) | 25.7 µM (inactive) | 16.9 µM (inactive) | 54 µM (inactive) | 10.1 µM (inactive) | 19.2 µM (inactive) | 13.1 µM (inactive) | 24.8 µM (inactive) | 29.6 µM (inactive) | 16 µM (inactive) | 58.9 µM (inactive) | 16.9 µM (inactive) | 38.9 µM (inactive) | 33.5 µM (inactive) | 15.8 µM (inactive) | 22.6 µM (inactive) | – | – | –
2 | COc1ccc2c(c1)N=C1CSC(c3ccccc3Cl)N1C2 (stereo not drawn) | 6.17 µM (inactive) | 16.3 µM (inactive) | 4.08 µM (inactive) | – | 12.2 µM (inactive) | 12.2 µM (inactive) | 3.31 µM (inactive) | 27.4 µM (inactive) | 14.1 µM (inactive) | 0.411 µM (active) | 19 µM (inactive) | 0.659 µM (active) | 13.3 µM (inactive) | 10.8 µM (inactive) | 5.48 µM (inactive) | 3.12 µM (inactive) | 14.5 µM (inactive) | 11.3 µM (inactive) | 15.1 µM (inactive)
3 | N=C(N)N/N=C/c1c(-c2ccc(Cl)c(Cl)c2Cl)nc2sccn12 | 1.59 µM (inactive) | 1.65 µM (inactive) | 1.44 µM (inactive) | 1.1 µM (active) | 2.05 µM (inactive) | – | 1.82 µM (inactive) | 1.21 µM (inactive) | 2.1 µM (inactive) | 1.63 µM (inactive) | 1.33 µM (inactive) | – | 1.79 µM (inactive) | 1.2 µM (inactive) | 3.33 µM (inactive) | 1.7 µM (inactive) | 1.69 µM (inactive) | – | 1.91 µM (inactive)
4 | Cc1ccsc1C(=O)C(CC(=O)c1cccs1)c1ccsc1 (stereo not drawn) | 64.6 µM (inactive) | > 100 µM (inactive) | > 10 µM (inactive) | > 100 µM (inactive) | 76.2 µM (inactive) | – | > 100 µM (inactive) | 77.6 µM (inactive) | > 100 µM (inactive) | – | > 100 µM (inactive) | 77.3 µM (inactive) | > 100 µM (inactive) | > 100 µM (inactive) | > 100 µM (inactive) | 33.5 µM (inactive) | > 100 µM (inactive) | > 100 µM (inactive) | > 100 µM (inactive)
5 | Cn1c(=O)c(Br)c(C=O)n(CCO[N+](=O)[O-])c1=O | 4.23 µM (inactive) | – | 1.23 µM (inactive) | 18.2 µM (inactive) | 1.97 µM (inactive) | 2.26 µM (inactive) | – | 2.53 µM (inactive) | – | 1.77 µM (inactive) | 26.2 µM (inactive) | 1.87 µM (inactive) | – | 3.02 µM (inactive) | 7.76 µM (inactive) | 15.9 µM (inactive) | 21.6 µM (inactive) | – | 18.5 µM (inactive)
6 | COc1ccc(NC(=O)CC(=O)N2N=C(N3CCCCC3)CC2c2ccccc2)cc1 (stereo not drawn) | > 100 µM (inactive) | > 100 µM (inactive) | > 100 µM (inactive) | > 100 µM (inactive) | > 100 µM (inactive) | – | > 100 µM (inactive) | > 100 µM (inactive) | > 100 µM (inactive) | > 100 µM (inactive) | > 100 µM (inactive) | > 100 µM (inactive) | > 100 µM (inactive) | > 100 µM (inactive) | > 100 µM (inactive) | > 100 µM (inactive) | > 100 µM (inactive) | > 100 µM (inactive) | –
7 | C#CC(O)/C=C/CCCCCCC#CC/C=C\CC#CCCCCCC/C=C/C(O)C#C (stereo not drawn) | 2.24 µM (inactive) | 2.39 µM (inactive) | 2.64 µM (inactive) | 3.21 µM (inactive) | 10.8 µM (inactive) | – | 2.29 µM (inactive) | 2.99 µM (inactive) | 2.57 µM (inactive) | 1.77 µM (inactive) | 12.4 µM (inactive) | 0.111 µM (active) | 13.9 µM (inactive) | 12.4 µM (inactive) | 24.5 µM (inactive) | 4.35 µM (inactive) | 2.1 µM (inactive) | 14.1 µM (inactive) | 18 µM (inactive)
8 | COc1ccc(NC(=S)N/N=C(\C)c2nc3cccnc3[nH]2)cc1 | 11.7 µM (inactive) | 3.52 µM (inactive) | 3.93 µM (inactive) | 14.3 µM (inactive) | 3.41 µM (inactive) | 4.35 µM (inactive) | 3.96 µM (inactive) | 5.9 µM (inactive) | 4.94 µM (inactive) | 2.69 µM (inactive) | 5.32 µM (inactive) | 3.41 µM (inactive) | 3.13 µM (inactive) | 3.87 µM (inactive) | 2.9 µM (inactive) | 2.94 µM (inactive) | 7.5 µM (inactive) | – | 13.5 µM (inactive)
9 | Cc1cc(C)c(S(=O)(=O)N2CCCN(S(=O)(=O)c3c(C)cc(C)cc3C)OCCCON(S(=O)(=O)c3c(C)cc(C)cc3C)CCCN(S(=O)(=O)c3c(C)cc(C)cc3C)OCCCO2)c(C)c1 | > 100 µM (inactive) | > 100 µM (inactive) | > 100 µM (inactive) | – | > 100 µM (inactive) | 67.3 µM (inactive) | > 100 µM (inactive) | > 100 µM (inactive) | > 100 µM (inactive) | 46.6 µM (inactive) | > 100 µM (inactive) | > 100 µM (inactive) | > 100 µM (inactive) | > 100 µM (inactive) | > 100 µM (inactive) | > 100 µM (inactive) | > 100 µM (inactive) | 61.1 µM (inactive) | > 100 µM (inactive)
10 | Cc1ccc(S(=O)(=O)N/N=C2\CC3C4C=CC3C2C4)cc1 (stereo not drawn) | > 100 µM (inactive) | > 100 µM (inactive) | > 100 µM (inactive) | > 100 µM (inactive) | > 100 µM (inactive) | – | > 100 µM (inactive) | > 100 µM (inactive) | > 100 µM (inactive) | > 100 µM (inactive) | > 100 µM (inactive) | > 100 µM (inactive) | > 100 µM (inactive) | > 100 µM (inactive) | > 100 µM (inactive) | > 100 µM (inactive) | > 100 µM (inactive) | > 100 µM (inactive) | > 100 µM (inactive)
11 | CO/C=C/C=C(\C#N)C(=O)OC | > 100 µM (inactive) | > 100 µM (inactive) | > 100 µM (inactive) | > 100 µM (inactive) | > 100 µM (inactive) | > 100 µM (inactive) | > 100 µM (inactive) | > 100 µM (inactive) | > 100 µM (inactive) | – | > 100 µM (inactive) | 16.9 µM (inactive) | > 100 µM (inactive) | > 100 µM (inactive) | > 100 µM (inactive) | > 100 µM (inactive) | > 100 µM (inactive) | – | > 100 µM (inactive)
12 | O=C(/C=C/c1ccc(OCc2ccccc2)cc1)NCc1ccc(C(=O)NCCc2ccccc2)cc1 | > 100 µM (inactive) | > 100 µM (inactive) | > 100 µM (inactive) | > 100 µM (inactive) | > 100 µM (inactive) | – | > 100 µM (inactive) | > 100 µM (inactive) | > 100 µM (inactive) | – | > 100 µM (inactive) | – | > 100 µM (inactive) | > 100 µM (inactive) | > 100 µM (inactive) | > 100 µM (inactive) | 89.1 µM (inactive) | 64.1 µM (inactive) | > 100 µM (inactive)
